Measured values published in article PMC3511610 (Pediatric blood & cancer, 2012).
“Also recorded” adds a separate entry of the source.

Key:
[1] = Phase I trial: toxicity, dose-limiting toxicities, MTD; type: in vivo, human (pediatric patients); details: for recommended phase 2 dose, vorinostat part of the combination: with bortezomib
solid tumor = details: Pediatric Preclinical Testing Program (PPTP); cited from earlier work
NF-κB = NF-κB activity by ELISA in patient PBMCs; type: in vivo, human (pediatric patients)
[2] = Pediatric Preclinical Testing Program (PPTP); cited from earlier work
[3] = no reference given, cited from earlier work
Grp78 = Grp78 immunoblot in patient PBMCs; type: in vivo, human (pediatric patients); details: three evaluable of seven samples (four degraded); vs pre-treatment
[4] = cited from earlier work
[5] = prior pediatric single agent trials; cited from earlier work
[6] = Bortezomib plasma pharmacokinetics, day 8 cycle 1, three-compartment model; type: in vivo, human (pediatric patients)
[7] = single agent, children with recurrent or refractory cancer; cited from earlier work
[8] = Vorinostat pharmacokinetics, day 8 cycle 1, noncompartmental
[9] = Mean, n=6, single intravenous dose of 1.3 mg/m^2, day 8 cycle 1, plasma

For `CC(C)C[C@H](NC(=O)[C@H](Cc1ccccc1)NC(=O)c1cnccn1)B(O)O` [bortezomib, Bortezomib], the “MTD, bortezomib part of the combination” value ([1]; i.v. days 1, 4, 8, 11, with vorinostat 230 mg/m^2/day, bortezomib not escalated) is given as 1.3 mg/m^2/day, the “in vivo solid tumor activity” value (solid tumor) is given as “limited to rhabdomyosarcoma, Wilms tumor, osteosarcoma, and medulloblastoma” and the “pretreatment NF-κB activity levels in PBMCs compared to levels 24 hours after bortezomib administration” value (NF-κB; Figure 1, 0 vs 24 hours) is given as “the same or increased”. The “NF-κB activity in PBMCs after bortezomib treatment” value (NF-κB; PBMCs from solid tumor patients, with vorinostat) was “did not observe a decrease in NF-κB activity”, the “NF-κB activation in PBMCs at 24 hours” value (NF-κB; in approximately half of the patient samples) was “increase in NF-κB activation” and the “in vitro anti-tumor activity” value [2] was “widespread in vitro anti-tumor activity”. The “adult MTD” value [3] was 1.3 mg/m^2/day, the “Grp78 protein expression in PBMCs after bortezomib treatment” value (Grp78) was “no induction of Grp78 detected; also recorded: not able to detect Grp78 induction” and the “recommended phase 2 regimen in adults with solid tumors, bortezomib dose” value ([4]; days 1, 4, 8, and 11, with vorinostat) was 1.3 mg/m^2/dose. For the same molecule, the “Dose-limiting toxicities (DLTs)” value [5] was “thrombocytopenia, confusion, and febrile neutropenia associated with hypotension and an elevated creatinine”, the “Cl (clearance)” value [6, 9] was 9.1 L/hr/m^2 and the “Vc (volume of distribution in the central compartment)” value [6, 9] was 13 L/m^2. The “plasma concentrations prior to the day 8 dose” value ([6]; cycle 1, dosed every three days, suggests accumulation) was “low plasma concentrations”, the AUC(0-inf) ([6]; human, plasma, iv, 1.3 mg/m2) was 485 ng·h/mL and the AUC(0-t) ([6]; human, plasma, iv, 1.3 mg/m2) was 82 ng·h/mL.

With `O=C(CCCCCCC(=O)Nc1ccccc1)NO` [vorinostat, Vorinostat] the “MTD, vorinostat part of the combination” value ([1]; PO days 1–5 and 8–12, with bortezomib 1.3 mg/m^2/day days 1, 4, 8, 11) was 230 mg/m^2/day, the “recommended phase 2 dose, vorinostat part of the combination” value ([1]; PO days 1–5 and 8–12 of a 21 day cycle) was 230 mg/m^2/day and the “recommended phase 2 dose, vorinostat part of the combination” value ([1]; orally days 1–5 and 8–12 of a 21 day cycle) was 230 mg/m^2/dose. For the same molecule, the adult recommended dose ([3]; daily) was 400 mg, the DLTs [7] was “neutropenia, thrombocytopenia, and hypokalemia” and the “recommended phase 2 regimen in adults with solid tumors, vorinostat dose” value ([4]; daily for eight days every 21 days, with bortezomib) was 400 mg. It also gave a Tmax ([8]; human, serum, po, 180 mg/m^2) of 6 h and a mean apparent clearance ([8]; mean over patients, dose levels 180–300 mg/m^2 oral, day 8 cycle 1) of 198 L/m^2.
